The source of these data is BindingDB's records for doi:10.1021/acs.jmedchem.8b01644 (University of Montpellier, 2019).

Usually EC50 stands for the concentration giving half of the maximal effect.

Structures are written as SMILES. Positions of bridges follow the written chain, without caps; N, C: chain ends. Non-standard residues stand in square brackets, D forms with d. Residues, ends and D or L forms follow the SMILES beside them. Nle = CCCC[C@H](N)C(=O)O

Experiment [1] is described as follows: Antagonist activity at SNAP-tagged human GHSR expressed in HEK293T cells assessed as reduction in ghrelin-induced inositol phosphate production at 1 uM by measuring ghrelin EC50 after 30 mins by HTRF assay (Rvb = 0.36 +/- 0.01 nM). For orientation: In TR-FRET formats the signal depends on donor and acceptor labels being close together.
Experiment [2] can be described thus: Antagonist activity at human SNAP-tagged GHSR expressed in HEK293T cells assessed as reduction in ghrelin-induced calcium production at 1 uM by measuring ghrelin EC50 after 15 mins by Fluo 4-AM dye-based fluorescence assay (Rvb = 0.41 +/- […]).
A short description of experiment [3]: Antagonist activity at SNAP-tagged human GHSR expressed in HEK293T cells assessed as reduction in ghrelin-induced inositol phosphate production at 1 uM by measuring ghrelin EC50 after 30 mins by HTRF assay (Rvb = 0.40 +/- 0.05 nM).
A short description of experiment [4]: Antagonist activity at human SNAP-tagged GHSR expressed in HEK293T cells assessed as reduction in ghrelin-induced calcium production at 1 uM by measuring ghrelin EC50 after 15 mins by Fluo 4-AM dye-based fluorescence assay (Rvb = 0.34 +/- 0.12 nM).

As for `CC[C@H](C)[C@@H]1NC(=O)[C@@H]2CSSC[C@@H](C(=O)N[C@@H](CO)C(=O)N[C@@H](CC(C)C)C(=O)N[C@@H](CO)C(=O)N[C@H](C(=O)N[C@@H](C)C(=O)N[C@@H](CCC(N)=O)C(=O)N[C@@H](CCC(=O)O)C(=O)O)C(C)C)NC(=O)[C@H](CCCNC(=N)N)NC(=O)[C@H](CCCNC(=N)N)NC(=O)[C@H](CCCCN)NC(=O)[C@H](CCCNC(=N)N)NC(=O)[C@H](CSSC[C@H](NC(=O)[C@H](CO)NC(=O)[C@H](C)NC(=O)CNC(=O)[C@@H](NC(=O)[C@@H]3CCCN3C(=O)[C@H](CCCNC(=N)N)NC(=O)[C@H](CC(C)C)NC(=O)[C@H](CO)NC(=O)[C@@H](NC(=O)CNC(=O)[C@H](CCCNC(=N)N)NC(=O)[C@H](Cc3c[nH]c4ccccc34)NC(=O)[C@H](Cc3ccccc3)NC(=O)[C@@H]3CCCN3C(=O)[C@@H](NC(=O)[C@@H](N)CCSC)[C@@H](C)O)C(C)C)[C@@H](C)CC)C(=O)N[C@@H](CCCNC(=N)N)C(=O)N[C@@H](CC(=O)O)C(=O)N[C@@H](CC(=O)O)C(=O)N[C@@H](CO)C(=O)N[C@@H](CCC(=O)O)C(=O)N2)NC(=O)[C@H](CC(C)C)NC(=O)[C@H](CCCNC(=N)N)NC(=O)[C@H]([C@@H](C)O)NC1=O` (H-MTPFWRGVSLRPIGASCRDDSECITRLCRKRRCSLSVAQE-OH; disulfide 17-28, 23-33), the EC50 in experiment [1] came out at 0.017 µM; in experiment [2], 0.028 µM.

For the compound `CCCC[C@H](N)C(=O)N[C@H](C(=O)N1CCC[C@H]1C(=O)N[C@@H](Cc1ccccc1)C(=O)N[C@@H](Cc1c[nH]c2ccccc12)C(=O)N[C@@H](CCCNC(=N)N)C(=O)NCC(=O)N[C@H](C(=O)N[C@@H](CO)C(=O)N[C@@H](CC(C)C)C(=O)N[C@@H](CCCNC(=N)N)C(=O)N1CCC[C@H]1C(=O)N[C@H](C(=O)NCC(=O)O)[C@@H](C)CC)C(C)C)[C@@H](C)O` (H-[Nle]TPFWRGVSLRPIG-OH), the EC50 in experiment [3] is 0.0025 µM; in experiment [4] it was 0.018 µM.
